Laboratory results from publication PMC5856786, “A DHODH inhibitor increases p53 synthesis and enhances tumor cell killing by p53 degradation blockage” (Nature Communications, 2018).

Experiments:
[1] = system: p53-induced mRNAs in ARN8 cells; test: q-RT-PCR of p53-induced mRNAs and p53 mRNA; format: cell-based, human
Description: Supplementary Figure 1. HZ compounds increase the levels of p53-induced mRNAs. a) p53-null H1299 cells were transfected with the RGCΔ FosLacZ reporter construct and levels of p53-dependent transcription were determined by CPRG assay following a 16 h exposure to HZ00. A vector expressing wild-type p53 was used as a positive control. The average of three […]
for 1 hour prior to treatment with 2 µM nutlin-3 for an additional 18 hours. Levels of p53-induced mRNAs and p53 mRNA were determined by q-RT-PCR. tbp was used as a control.
Values correspond to the average of three technical repeats with standard deviation used for error. RNA extraction and q-RT-PCR were performed as previously described - see supplementary information7. c) HCT116 p53 wild-type or p53 deficient cells were treated […]
supplementary information for cell line description8. d) ARN8 cells treated for 6 hours with HZ00 at indicated doses. Levels of p53 mRNA were determined by q-RT-PCR. […]

ARN8 cells [2] = test: BrdU/PI flow cytometry, cell cycle distribution; format: cell-based, human
Description: (§1) Cell cycle distribution analysis was performed on a Becton Dickinson FACScan flow cytometer or FACSCalibur (BD Biosciences) following staining with propidium iodide (PI) or dual labeling with BrdU and PI[36]. These assays were analyzed using CellQuest Pro (BD Biosciences).

RNA levels in ARN8 cells = test: RNASeq differential expression and gene ontology analysis; format: cell-based, human; conditions: ARN8, 5 h
Source text: Libraries were generated using the NEBNext Ultra Directional RNA Library Prep Kit for Illumina (New England Biolabs). Data are deposited at GEO with the accession code: GSE87577. […] Differential expression and gene ontology analysis are in Supplementary Data 1. Values correspond to the average of three biological repeats.

HNDF cells = test: MTT growth/viability assay, HNDF; format: cell-based, human; conditions: 72 h
Description: MTT assays were performed in 96 well plates. After treatments, medium was replaced with 200 μL of MTT solution (3 mg mL^−1 MTT (Sigma #M2128) in PBS diluted 1:5 in growth medium). […] Volume of 200 μL DMSO per well were added and plates were read at 570 nm.

ARN8 cells [3] = test: SRB growth/viability assay, ARN8; format: cell-based, human; conditions: for effect on cell growth and p53 activation in presence of excess uridine: uridine 100 μM
Description: SRB assays measuring protein content were performed in 96-well plates as previously described.

ARN8 cells [4] = test: PI flow cytometry, sub-G1 cells, ARN8; format: cell-based, human; conditions: for DMSO control subtracted effect (cells in sub-G1) / sub-G1 cells: ARN8 72 h
Description: as §1

[5] = system: DNA damage response markers in ARN8 cells; test: Western blotting of DNA damage response markers; format: cell-based, human
Description: Protein extracts were prepared in 1× LDS sample buffer (Invitrogen) with 100 mM DTT and separated and transferred using the Invitrogen western blotting system except in Supplementary Fig. 1c where the BioRad western blotting system was used. HRP-conjugated secondary antibodies were obtained from Dako (#P016102 and #P0211702) or Santa Cruz (#SC-2020). Immunofluorescence was performed by fixing cells in 4% paraformaldehyde freshly made in PBS for 10 min at 37 °C. Following fixation, cells were permeabilized in 0.15% Triton X-100 for 1–2 min at 37 °C followed by staining with the indicated antibodies. Images were taken using Olympus IX-71 microscope controlled by DeltaVision SoftWoRx. […]
Protein levels were analyzed by western blotting and relative p53 levels quantified using […]
for 1 h prior to the addition of hydroxyurea (HU) or vehicle control for a further 3 h and analyzed by western blotting. gapdh was used as loading control. d) ARN8 cells were treated […]
(Sigma, #N9162) for a further 2 h. Samples were lysed in 2 × LDS buffer (Invitrogen) and levels of P-ATM and ATM determined. α-tubulin was detected for loading control. e) ARN8 […]
of NCS for a further 2 h. Samples were lysed as in d) and levels of P-Ser15 p53 and γ-H2AX were determined. gapdh was used as loading control. f−g) ARN8 cells were treated with […]
(Ser 345) and chk1 were detected. […]

U2OS cells = test: PI flow cytometry, sub-G1 cells, U2OS; format: cell-based
Description: as §1

[6] = system: p53 levels in S-phase U2OS cells; test: p53-FITC/DNA content flow cytometry; format: cell-based; conditions: HZ05 1 μM, 72 h
Description: The upper left panel is a representative dot plot showing the gating strategy for cells expressing high p53 levels (blue: […] DMSO treated). […] A representative histogram of the fluorescence intensity of FITC-p53 in S-phase cells is shown in the lower right panel. Bar graphs show the average of three independent experiments. […] After an additional 48 h, Annexin V and PI staining was analyzed by flow cytometry. […] Inhibition of p53 degradation in the form of an mdm2 antagonist leads to death of cells in S-phase For the detection of p53, cells were treated as indicated and fixed using Fix/Perm buffer solution (eBiosciences). […] Cells were resuspended in FACS buffer (2 mM EDTA, 0.5% BSA) containing 2 μg mL^−1 FxCycle Violet (Thermo Scientific). Stained cells were acquired on LSRII (BD Biosciences) and analyzed using FlowJo software V10.2.

O=C(NC1CCCc2c1cnn2-c1ccccc1F)c1ccccn1 (stereo not shown) [HZ00]
mRNA of p53 target genes [1]: raised the mRNA of p53 target genes
accumulation of cells in S-phase (ARN8 cells [2]): accumulates ARN8 cells in S-phase
log2FoldChange, drug vs DMSO, gene ENSG00000166436 (RNA levels in ARN8 cells; sheet Drug HZ00vsDMSO (20 μM)): -1.5997
log2FoldChange, drug vs DMSO, gene ENSG00000197153 (RNA levels in ARN8 cells; sheet Drug HZ00vsDMSO (20 μM)): -1.477
log2FoldChange, drug vs DMSO, gene ENSG00000204569 (RNA levels in ARN8 cells; sheet Drug HZ00vsDMSO (20 μM)): -2.244
log2FoldChange, drug vs DMSO, gene ENSG00000221926 (RNA levels in ARN8 cells; sheet Drug HZ00vsDMSO (20 μM)): -1.707
log2FoldChange, drug vs DMSO, gene ENSG00000277224 (RNA levels in ARN8 cells; sheet Drug HZ00vsDMSO (20 μM)): -1.408
inhibitory effect on proliferation, HNDF versus ARN8 (HNDF cells): lesser inhibitory effect on proliferation of HNDFs than on the growth of ARN8 cells
effect on cell growth and p53 activation in presence of excess uridine (ARN8 cells [3]; ARN8): completely abolished
synergy with nutlin-3 (cell kill) (ARN8 cells [4]; ARN8 in vitro, 72 h, additivity and Bliss independence models): synergistic cell kill
induction of DNA damage response markers [5]: did not observe any induction

O=C(NC1CCCc2c1cnn2-c1ccccc1F)c1onc2c1CCCC2 (stereo not shown) [HZ05]
accumulation of cells in S-phase (ARN8 cells [2]): accumulation of ARN8 cells in S-phase
log2FoldChange, drug vs DMSO, gene ENSG00000121101 (RNA levels in ARN8 cells; sheet Drug HZ05vsDMSO (5 μM)): -2.498
log2FoldChange, drug vs DMSO, gene ENSG00000197153 (RNA levels in ARN8 cells; sheet Drug HZ05vsDMSO (5 μM)): -1.694
log2FoldChange, drug vs DMSO, gene ENSG00000204569 (RNA levels in ARN8 cells; sheet Drug HZ05vsDMSO (5 μM)): -2.424
log2FoldChange, drug vs DMSO, gene ENSG00000221926 (RNA levels in ARN8 cells; sheet Drug HZ05vsDMSO (5 μM)): -1.667
log2FoldChange, drug vs DMSO, gene ENSG00000276410 (RNA levels in ARN8 cells; sheet Drug HZ05vsDMSO (5 μM)): -1.7121
sub-G1 cells (U2OS cells; HZ05 1 μM 72 h + 48 h, 2 μM nutlin-3a last 48 h): 38.2%
sub-G1 cells (U2OS cells; HZ05 1 μM 72 h + 48 h, DMSO last 48 h): 25.7%
sub-G1 cells (U2OS cells; HZ05 1 μM, 72 h treatment): 3.7%
sub-G1 cells (U2OS cells; HZ05 2.5 μM, 72 h treatment): 4.8%
p53 levels in S-phase cells [6]: higher levels of p53 than vehicle treated controls
effect of serum albumin concentration on activity (ARN8 cells [3]; ARN8, 72 h, increasing BSA): affected to a lesser degree than brequinar
effect on cell growth and p53 activation in presence of excess uridine (ARN8 cells [3]; ARN8): prevented by addition of excess uridine
concentration reducing cell viability or growth (ARN8 cells [3]; cultured cells, authors' response in peer review file): ~160 nM
DMSO control subtracted effect (cells in sub-G1) (ARN8 cells [4]; HZ05 250 nM + nutlin-3a 0 µM): 0.06
DMSO control subtracted effect (cells in sub-G1) (ARN8 cells [4]; HZ05 250 nM + nutlin-3a 5 µM): 0.27
DMSO control subtracted effect (cells in sub-G1) (ARN8 cells [4]; HZ05 250 nM + nutlin-3a 10 µM): 0.48
DMSO control subtracted effect (cells in sub-G1) (ARN8 cells [4]; HZ05 250 nM + nutlin-3a 15 µM): 0.69
DMSO control subtracted effect (cells in sub-G1) (ARN8 cells [4]; HZ05 250 nM + nutlin-3a […]): 0.61
sub-G1 cells (ARN8 cells [4]; HZ05 400 nM (Fig. 6c)): 16.61%
sub-G1 cells (ARN8 cells [4]; HZ05 400 nM + nutlin-3a 1 μM): 36.73%
sub-G1 cells (ARN8 cells [4]; HZ05 400 nM + nutlin-3a 2.5 μM): 46.63%
sub-G1 cells (ARN8 cells [4]; HZ05 400 nM + nutlin-3a 5 μM): 54.06%
DMSO control subtracted effect (cells in sub-G1) (ARN8 cells [4]; HZ05 500 nM + nutlin-3a 0 µM): 0.08
DMSO control subtracted effect (cells in sub-G1) (ARN8 cells [4]; HZ05 500 nM + nutlin-3a 5 µM): 0.35
DMSO control subtracted effect (cells in sub-G1) (ARN8 cells [4]; HZ05 500 nM + nutlin-3a 10 µM): 0.60
DMSO control subtracted effect (cells in sub-G1) (ARN8 cells [4]; HZ05 500 nM + nutlin-3a 15 µM): 0.67
DMSO control subtracted effect (cells in sub-G1) (ARN8 cells [4]; HZ05 500 nM + nutlin-3a […]): 0.58
sub-G1 cells (ARN8 cells [4]; HZ05 1 μM (Fig. 6b)): 31.06%
DMSO control subtracted effect (cells in sub-G1) (ARN8 cells [4]; HZ05 1000 nM + nutlin-3a 10 µM): 0.56
DMSO control subtracted effect (cells in sub-G1) (ARN8 cells [4]; HZ05 1000 nM + nutlin-3a 15 µM): 0.71
DMSO control subtracted effect (cells in sub-G1) (ARN8 cells [4]; HZ05 1000 nM + nutlin-3a […]): 0.62
sub-G1 cells (ARN8 cells [4]; HZ05 2.5 μM (Fig. 6b)): 35.04%
DMSO control subtracted effect (cells in sub-G1) (ARN8 cells [4]; HZ05 […] + nutlin-3a 0 µM): 0.03
DMSO control subtracted effect (cells in sub-G1) (ARN8 cells [4]; HZ05 […] + nutlin-3a 5 µM): 0.19
DMSO control subtracted effect (cells in sub-G1) (ARN8 cells [4]; HZ05 […] + nutlin-3a 10 µM): 0.39
DMSO control subtracted effect (cells in sub-G1) (ARN8 cells [4]; HZ05 […] + nutlin-3a 15 µM): 0.63
synergy with nutlin-3a (cell kill) (ARN8 cells [4]; ARN8 in vitro, 72 h): strong synergistic cell kill
